These results are taken from PMC4706797 (Journal of pharmaceutical sciences, 2015).

The test system of one series is MDA-MB-231. Description: Cytotoxicity assay. The class given is cell-based. The following applies: Homo sapiens, MDA-MB-231, 48 h, read-out: IC50 (μM) DTX only.
The subject of the next series is Bcl-2. The series is described as follows: Western blot, Bcl-2 expression in MDA-MB-231 cells. The note with it: MDA-MB-231, DTX 0.1 μM and/or 1 μM PPL, 48 hr, densitometry. The class given is cell-based.
A further series deals with HCC70. Description: Cytotoxicity assay. The class given is cell-based. The note with it: Homo sapiens, HCC70, 48 h, read-out: IC50 (μM) DTX only.
A further series has as its system MDA-MB-231 cells. The series is described as follows: In vitro migration. In kind it is cell-based.
The next series has as its system p53. Description: Western blot, p53 expression in MDA-MB-231 cells. In kind it is cell-based. The note with it: MDA-MB-231, DTX 0.1 μM and/or 1 μM PPL, 48 hr, densitometry.
The test system of another series is survivin. Description: Western blot, survivin expression in MDA-MB-231 cells. The following applies: MDA-MB-231, DTX 0.1 μM and/or 1 μM PPL, 48 hr, densitometry. The class given is cell-based.
Another series deals with HS578T. Description: Cytotoxicity assay. The class given is cell-based. The following applies: Homo sapiens, Hs-578T, 48 h, read-out: IC50 (μM) DTX only.
For the next series, the system named is MDA-MB-468. Description: Cytotoxicity assay. In kind it is cell-based. The note with it: Homo sapiens, MDA-MB-468, 48 h, read-out: IC50 (μM) DTX only.
For another series, the system named is cyclin D1. The series is described as follows: Western blot, cyclin D1 expression in MDA-MB-231 cells. In kind it is cell-based. The following applies: MDA-MB-231, DTX 0.1 μM and/or 1 μM PPL, 48 hr, densitometry.
For a further series, the system named is HCC1806. The series is described as follows: Cytotoxicity assay. In kind it is cell-based. The following applies: Homo sapiens, HCC1806, 48 h, read-out: IC50 (μM) DTX only.
Series [1] in a line: In vivo pharmacokinetic in rats. Also on record: species or system Sprague Dawley rats.
For another series, the system named is CYP3A4. The following applies: 50 μM PPL or CYA, 5 μM TST, human liver microsomes, over 60 min.
In series [2] the test system is triple negative breast cancer (TNBC) cell lines. Description: Cytotoxicity in TNBC cell lines. The class given is cell-based.
The target of the next series is P-gp (Homo sapiens, UniProt P08183). Description: Caco-2 uptake study of P-gp substrates. The note with it: Caco-2 cells, 50 μM PPL or verapamil.
Sequence of P-gp (P08183 whole entry): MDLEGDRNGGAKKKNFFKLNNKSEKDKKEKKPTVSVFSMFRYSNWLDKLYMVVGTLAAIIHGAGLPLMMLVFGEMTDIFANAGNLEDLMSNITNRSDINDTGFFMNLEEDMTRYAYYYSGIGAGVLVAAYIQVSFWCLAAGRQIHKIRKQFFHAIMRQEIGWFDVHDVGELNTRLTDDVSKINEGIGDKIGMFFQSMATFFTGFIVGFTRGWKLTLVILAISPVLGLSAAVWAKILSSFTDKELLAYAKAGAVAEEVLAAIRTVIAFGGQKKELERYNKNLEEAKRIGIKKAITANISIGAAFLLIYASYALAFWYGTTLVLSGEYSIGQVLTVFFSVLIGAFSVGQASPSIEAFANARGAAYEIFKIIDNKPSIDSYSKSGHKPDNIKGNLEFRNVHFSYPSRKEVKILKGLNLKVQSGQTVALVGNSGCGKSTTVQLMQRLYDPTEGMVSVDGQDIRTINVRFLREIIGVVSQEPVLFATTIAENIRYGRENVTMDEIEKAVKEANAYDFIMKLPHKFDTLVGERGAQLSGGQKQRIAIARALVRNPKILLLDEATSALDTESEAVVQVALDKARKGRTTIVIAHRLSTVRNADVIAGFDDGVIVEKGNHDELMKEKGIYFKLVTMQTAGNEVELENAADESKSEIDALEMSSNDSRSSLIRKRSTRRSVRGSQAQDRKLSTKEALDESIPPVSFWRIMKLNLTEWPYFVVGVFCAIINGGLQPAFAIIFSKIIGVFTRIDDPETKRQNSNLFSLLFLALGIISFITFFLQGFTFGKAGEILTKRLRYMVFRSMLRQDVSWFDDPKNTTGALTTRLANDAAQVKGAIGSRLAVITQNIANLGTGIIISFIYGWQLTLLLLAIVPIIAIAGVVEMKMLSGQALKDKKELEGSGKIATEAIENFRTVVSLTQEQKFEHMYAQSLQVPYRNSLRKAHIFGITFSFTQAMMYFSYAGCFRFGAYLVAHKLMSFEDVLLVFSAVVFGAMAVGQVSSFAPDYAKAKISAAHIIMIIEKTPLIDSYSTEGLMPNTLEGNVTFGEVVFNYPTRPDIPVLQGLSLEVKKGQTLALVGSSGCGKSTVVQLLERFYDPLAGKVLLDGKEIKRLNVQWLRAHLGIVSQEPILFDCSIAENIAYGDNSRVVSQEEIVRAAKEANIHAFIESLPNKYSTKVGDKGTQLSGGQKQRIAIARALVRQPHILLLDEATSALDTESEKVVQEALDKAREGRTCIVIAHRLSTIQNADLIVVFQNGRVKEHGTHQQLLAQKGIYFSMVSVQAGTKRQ
For series [3] the following is noted: oral co-administration with the taxane; cited from earlier work.
[4] abbreviates: Sprague Dawley, rat, plasma, iv, 5 mg/kg.

Regarding `CC(=O)O[C@@]12CO[C@@H]1C[C@H](O)[C@@]1(C)C(=O)[C@H](O)C3=C(C)[C@@H](OC(=O)[C@H](O)[C@@H](NC(=O)OC(C)(C)C)c4ccccc4)C[C@@](O)([C@@H](OC(=O)c4ccccc4)[C@H]21)C3(C)C` [DTX, Docetaxel], the IC50 was 0.458 ± 0.081 µM in the series with MDA-MB-231; 0.019 ± 0.008 µM with HCC70; 0.077 ± 0.013 µM in the series on HS578T; 0.36 ± 0.069 µM in the series with MDA-MB-468; 0.0022 ± 0.001 µM in the series on HCC1806. Besides, in the series on Bcl-2, the “Bcl-2 expression reduced compared to untreated control” value was 2.59 fold. The “percent bridging of scratch area” value is listed as 49.3% in the series on MDA-MB-231 cells (MDA-MB-231, 48 h, 0.1 μM DTX (combination with 1 μM PPL)) and 33.8% in the series on MDA-MB-231 cells (MDA-MB-231, 48 h, 0.4 μM DTX (combination with 1 μM PPL)). The “increase in expression of p53 compared to untreated control” value in the series on p53 is given as 1.2 fold. In addition, the “survivin expression down regulated compared to control” value with survivin amounted to 1.03 fold. Besides, the “cyclin D1 relative expression reduced compared to untreated control” value in the series with cyclin D1 turned out to be 0.8 fold. Moreover, the “Absolute BA” value in series [1] (SD rats, oral DTX 10 mg/kg (PPL 50 mg/kg where co-administered) vs IV 5 mg/kg) is listed as 9.26%. For the same molecule, the “time after which DTX plasma concentration was non-detectable” value in [1] (SD rats, oral administration) is 8 h. In series [1] (setting [4]), this molecule came in with an AUC of 5290 ± 1100 ng·h/mL. Further, in series [1] (setting [4]), the Cmax was found to be 6100 ± 1700 ng/mL. For the same molecule, the mean residence time (MRT) in series [1] (setting [4]) worked out at 1.99 ± 0.36 h. For the same molecule, in [1] (setting [4]), the half-life is 6.67 ± 1.6 h.

`COc1cc(/C=C/C(=O)N2CCC=CC2=O)cc(OC)c1OC` [PPL, Piperlongumine]: the “Bcl-2 expression reduced compared to untreated control” value in the series with Bcl-2 is 2.74 fold. In the series on CYP3A4, the “reduction in TST metabolism” value is given as ~50%. In addition, the “percent bridging of migration area” value in the series on MDA-MB-231 cells (MDA-MB-231, 48 h, 1 μM PPL alone) is reported as “comparable to control”. Besides, the anti-migration effect result in the series with MDA-MB-231 cells (PPL at concentration below 4 μM) was “no anti-migration effect”. For the same molecule, the cytotoxicity entry in [2] (PPL at 1 μM) is given as “no cytotoxcity”. Besides, the cell killing entry in series [2] (PPL below 4 μM) was “not shown a significant cell killing”. In addition, the “increase in expression of p53 compared to untreated control” value in the series with p53 is given as 1.1 fold. Further, the “survivin expression down regulated compared to control” value in the series on survivin is 1.19 fold. For the same molecule, the “intracellular uptake of R123 (green fluorescence intensity)” value at P-gp (1 μM rhodamine 123, 90 min, qualitative) was “green fluorescence intensity was higher”. At P-gp (5 μM DTX, 90 min), the “higher intracellular accumulation (uptake) of DTX” value is listed as 1.34 fold. Besides, in the series with cyclin D1, the “cyclin D1 relative expression reduced compared to untreated control” value came out at 2.10 fold.

In the case of `O=C(/C=C/C=C/c1ccc2c(c1)OCO2)N1CCCCC1` [piperine], the “anticancer and synergistic effect with docetaxel” value in series [2] (in vitro studies, data not shown) is “did not show potent anticancer and synergistic effect”.

Regarding `CC(C)c1nc(CN(C)C(=O)N[C@H](C(=O)N[C@@H](Cc2ccccc2)C[C@H](O)[C@H](Cc2ccccc2)NC(=O)OCc2cncs2)C(C)C)cs1` [ritonavir], in series [3], the “increase in plasma concentrations of docetaxel” value is 7.3 fold and the “increase in plasma concentrations of paclitaxel” value is 2.5 fold.
